Assay results taken from patent publication US8759504B2, “Cholinergic/serotoninergic receptor and uses thereof” (AbbVie Inc., priority 2007, dated 2014).
Read-outs that look alike come from different tables or passages of the source.

What was measured:
Chimera 1 = Chimera 1 (Homo sapiens, UniProt P36544, M226I/T225V); assay: [3H]A-585539 radioligand binding, HEK-293 membranes; design: expressed in transfected cells; conditions: membranes of HEK-293 cells expressing Chimera 1; read-out: Radioligand Binding KD ± SEM
Chimera 2 = Chimera 2 (Homo sapiens, UniProt P36544, M226I/T225V); assay: [3H]A-585539 radioligand binding, HEK-293 membranes/homogenates; design: expressed in transfected cells
Chimera 2, sequence (P36544 with tags, fused parts or gaps T225V/M226I): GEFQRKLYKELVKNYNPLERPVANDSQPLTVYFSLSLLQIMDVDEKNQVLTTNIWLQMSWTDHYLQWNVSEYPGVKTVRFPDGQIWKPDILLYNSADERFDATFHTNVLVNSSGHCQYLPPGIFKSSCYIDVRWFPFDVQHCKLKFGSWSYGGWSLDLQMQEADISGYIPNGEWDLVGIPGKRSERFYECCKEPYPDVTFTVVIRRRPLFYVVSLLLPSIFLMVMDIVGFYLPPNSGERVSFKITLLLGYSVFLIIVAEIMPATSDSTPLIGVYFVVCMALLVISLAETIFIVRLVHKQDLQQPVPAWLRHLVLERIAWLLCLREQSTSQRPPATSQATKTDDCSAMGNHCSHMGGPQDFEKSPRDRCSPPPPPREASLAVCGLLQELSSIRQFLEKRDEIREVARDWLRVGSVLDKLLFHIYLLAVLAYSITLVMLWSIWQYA

Chimera 1, sequence (P36544 with tags, fused parts or gaps T225V/M226I): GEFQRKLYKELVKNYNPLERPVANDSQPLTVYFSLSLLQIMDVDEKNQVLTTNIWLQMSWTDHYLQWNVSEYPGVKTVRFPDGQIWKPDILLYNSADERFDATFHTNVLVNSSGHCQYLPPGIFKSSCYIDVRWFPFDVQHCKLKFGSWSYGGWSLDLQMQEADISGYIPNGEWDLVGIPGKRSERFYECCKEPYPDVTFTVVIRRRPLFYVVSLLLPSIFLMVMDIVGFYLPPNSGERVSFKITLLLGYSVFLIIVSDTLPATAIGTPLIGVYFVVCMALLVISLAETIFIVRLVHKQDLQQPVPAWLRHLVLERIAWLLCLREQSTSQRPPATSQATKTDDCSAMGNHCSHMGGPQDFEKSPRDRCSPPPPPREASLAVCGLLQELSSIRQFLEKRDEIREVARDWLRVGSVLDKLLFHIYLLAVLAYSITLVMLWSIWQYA

For `C[N+]1(C)C[C@@H]2C[C@H]1CN2c1ccc(-c2ccccc2)nn1.[I-]` [[^3H]A585539, [^3H]-(S,S)-2,2-dimethyl-5-(6-phenyl-pyridazin-3-yl)-5-aza-2-azonia-bicyclo[2.2.1]heptane iodide], the Kd (Chimera 1) was 0.65 nM, the “Bmax, saturation binding” value (Chimera 2; 10 μM genistein, 4 μg/well) was 6058.0±809.3 fmol/mg protein and the Kd (Chimera 2; 10 μM genistein, 4 μg/well, read-out: Kd, saturation binding) was 0.1 ± 0.01 nM. For the same compound, the “Bmax, saturation binding” value (Chimera 2; 10 μM genistein, 20 μg/well) was 7251.0±587.8 fmol/mg protein, the Kd (Chimera 2; 10 μM genistein, 20 μg/well, read-out: Kd, saturation binding) was 0.18 ± 0.01 nM and the “Bmax, representative saturation binding” value (Chimera 2; absence of genistein) was 6014 fmol/mg protein. For the same compound, the Kd (Chimera 2; absence of genistein, read-out: Kd, representative saturation binding) was 0.15 nM, the Bmax (Chimera 2; homogenates of HEK-293-Chimera 2 cells) was 29167 fmol/mg protein and the Kd (Chimera 2; membranes of HEK-293 cells expressing Chimera 2, read-out: Radioligand Binding KD ± SEM) was 0.17 nM. The “Bmax, representative saturation binding” value (Chimera 2; presence of 10 μM genistein) was 6528 fmol/mg protein, the Kd (Chimera 2; presence of 10 μM genistein, read-out: Kd, representative saturation binding) was 0.17 nM and the “Bmax, saturation binding” value (Chimera 2; without genistein, 4 μg/well) was 5979.0±530.3 fmol/mg protein. For the same compound, the Kd (Chimera 2; without genistein, 4 μg/well, read-out: Kd, saturation binding) was 0.11 ± 0.01 nM, the “Bmax, saturation binding” value (Chimera 2; without genistein, 20 μg/well) was 7016.0±798.2 fmol/mg protein and the Kd (Chimera 2; without genistein, 20 μg/well, read-out: Kd, saturation binding) was 0.17 ± 0.02 nM.
